Reference: a compilation of properties of binary mixtures (doi:10.1016/j.molliq.2016.05.033)

Experiment: xn = mol fraction of the nth substance listed
Details: 101 kPa

Compound: CNc1ccccc1 + CCCC[n+]1ccn(C)c1.F[B-](F)(F)F
- speed of sound (293.15 K, x1 = 0.0974): 1578.7 m/s
- speed of sound (293.15 K, x1 = 0.3968): 1584.9 m/s
- speed of sound (293.15 K, x1 = 0.592): 1594.9 m/s
- speed of sound (293.15 K, x1 = 0.697): 1602.1 m/s
- speed of sound (293.15 K, x1 = 0.7972): 1601.6 m/s
- speed of sound (293.15 K, x1 = 0.8999): 1594.2 m/s
- speed of sound (293.15 K, x1 = 1): 1582.7 m/s
- speed of sound (303.15 K, x1 = 0.0974): 1554.2 m/s
- speed of sound (303.15 K, x1 = 0.3968): 1560.6 m/s
- speed of sound (303.15 K, x1 = 0.5009): 1562 m/s
- speed of sound (303.15 K, x1 = 0.592): 1566.3 m/s
- speed of sound (303.15 K, x1 = 0.697): 1571.4 m/s
- speed of sound (303.15 K, x1 = 0.7972): 1570 m/s
- speed of sound (303.15 K, x1 = 0.8999): 1559.5 m/s
- speed of sound (313.15 K, x1 = 0.2093): 1531.6 m/s
- speed of sound (313.15 K, x1 = 0.2979): 1532.2 m/s
- speed of sound (313.15 K, x1 = 0.3968): 1534.8 m/s
- speed of sound (313.15 K, x1 = 0.592): 1537.9 m/s
- speed of sound (313.15 K, x1 = 0.697): 1540.1 m/s
- speed of sound (313.15 K, x1 = 0.7972): 1537.7 m/s
- speed of sound (313.15 K, x1 = 0.8999): 1524.9 m/s
- speed of sound (313.15 K, x1 = 1): 1511.6 m/s
- speed of sound (323.15 K, x1 = 0.0974): 1507.2 m/s
- speed of sound (323.15 K, x1 = 0.2093): 1507.9 m/s
- speed of sound (323.15 K, x1 = 0.2979): 1508.4 m/s
- speed of sound (323.15 K, x1 = 0.3968): 1509.7 m/s
- speed of sound (323.15 K, x1 = 0.5009): 1510.5 m/s
- speed of sound (323.15 K, x1 = 0.7972): 1504.7 m/s
- speed of sound (323.15 K, x1 = 1): 1476.4 m/s

Compound: CCCC[n+]1ccn(C)c1.F[B-](F)(F)F + CNc1ccccc1
- speed of sound (293.15 K, x2 = 0): 1577.5 m/s
- speed of sound (303.15 K, x2 = 0): 1553.1 m/s
- speed of sound (313.15 K, x2 = 0): 1529.6 m/s
- speed of sound (323.15 K, x2 = 0): 1506.8 m/s
